# Data: US9453198B2, “Method of nociceptor differentiation of human embryonic stem cells and uses thereof” (MEMORIAL SLOAN KETTERING CANCER CENTER, priority 2010, dated 2016)
# How the values were obtained:
# [1] = test system: hPSCs; assay: Intracellular FACS for Nestin and TUJ1 (efficiency of neuronal differentiation); type: cell-based, human; details: day 10, further inhibitors added day 2 of LSB treatment
# Description: In the presence of LSB, SU/DAPT, DAPT, SU and CHIR, the majority of cells expressed Nestin. In particular, >95% of the LSB cell population were Nestin+.
# Neural induction was performed as previously reported (Chambers, et al., Nat Biotechnol 27, (2009), herein incorporated by reference). Briefly, cells were collected then rendered to a single cell suspension using ACCUTASE (Sigma-Aldrich Corp. St. Louis, Mo., USA) and plated on gelatin for 30 minutes to remove Mouse Embryonic Fibroblast (MEF) Feeder Cells (MEFs) (MEFs adhere to gelatin coated plate). Non-adherent cells were collected and plated on matrigel treated dishes at a density of 20-40,000 cells/cm^2 in the presence of MEF-conditioned hESC media containing 10 ng/ml FGF-2 and 10 μM Y-27632 (rho-kinase inhibitor—Tocris Bioscience). Neural differentiation was initiated when the cells were confluent using Knockout Serum Replacement (KSR) media containing 820 ml of Knockout DMEM, 150 ml Knockout Serum Replacement, 1 mM L-glutamine, 100 μM MEM non-essential amino acids, and 0.1 mM β-mercaptoethanol. To inhibit SMAD signaling, 100 nM LDN-193189 and 10 μM SB431542 were added daily from day 0 (when SMAD signaling inhibitors LSB were added) through day 5. Cells were fed daily (i.e. 6 feedings with inhibitors, D0, D1, D2, D3, D4 and D5), and N2 media was added to the initial medium in increasing 25% increments every other day starting on day 4 (up to 100% N2 on day 10). […] After day 10, long-term culture media consisted of N2 media containing 10-100 ng/ml human-β-nerve growth factor (NGF), 10-100 ng/ml brain-derived neurotrophic factor (BDNF), and 10-100 ng/ml glial cell-derived neurotrophic factor (GDNF).
# Cells were fixed with 4% paraformaldehyde for 20 minutes, washed with phosphate buffered saline (PBS), permeablized using 0.5% Triton X in PBS, and blocked using 1% BSA (bovine serum albumin) in phosphate buffered saline (PBS). For glutamate staining, 0.05% gluteraldehyde was added to the fixative. […]
# [2] = test system: transgenic SOX10::GFP BAC hESC line; assay: SOX10::GFP reporter FACS (neural crest induction); type: cell-based, human; details: by day 12 of differentiation
# Source text: Thus, in order to determine if a neural crest intermediate cell fate marked by SOX10 (Aoki, et al., Dev Biol 259, 19-33, (2003); Lee, et al., Nat Biotechnol 25, 1468-1475, (2007), herein incorporated by reference) in human cells would be observed during differentiation using a transgenic SOX10::GFP bacterial artificial chromosome (BAC) hPSC line. This SOX10:: GFP (BAC) cell line was generated with enriched neural crest gene markers that co-expressed with a GFP gene using methods previously reported (Placantonakis, et al., Stem Cells 27:521-532, (2009), herein incorporated by reference). The SOX10:GFP cell line was a sub-clone of the H9 hESC line. Cells were dissociated and gene delivery was performed using reagents (solution V), protocol (B-16), and equipment from Amaxa. The DNA nucleofected (transfected into the nucleus) was a bacterial artificial chromosome (BAC) containing the SOX10 gene with an inserted GFP, obtained from Gene Expression Nervous System Atlas [GENSAT] (accession number: GENSAT1-BX1086). […]
# [3] = test system: rodent GSK3β homologs; details: cited from earlier work
# [4] = test system: human ES cells; assay: Combinatorial small molecule screen, TUJ1/PAX6 immunofluorescence on day 10; type: cell-based; details: no matter when added during LSB treatment
# Source text: Specifically, in the context of dual SMAD inhibition (LSB), i.e. human ES cells were first treated with LSB (LDN-193189 and SB431542) for screening candidate compounds (i.e. small molecules) under approximately 400 conditions in order to find combinations of small molecules that might accelerate the acquisition of postmitotic neuron markers starting from human ES cells. Candidate compounds were chosen from molecules that targeted (altered) cell signaling pathways known to be important and frequently used in developmental studies in order to determine cell fates (for example, signaling pathways such as FGF, Notch, WNT, SHH (Sonic Hedgehog), etc.) for determining cells capable of CNS development. […]
# On day 10 after addition of LSB, cells that survived during the screen were monitored for the loss of the human neuroectoderm marker PAX6 (Zhang, et al., Cell Stem Cell 7, 90-100, (2010), herein incorporated by reference) and initiation of neuronal differentiation by TUJ1 expression (Lee, et al., Cell Motil Cytoskeleton 17, 118-132, (1990), herein incorporated by reference). […] In general, results were determined by observing comparative amounts of TUJ1+/PAX6− staining of cells generated by each treatment such that the conditions and compounds showing the highest amounts of TUJ1+/PAX6− staining were chosen as successful for providing cells for further analysis. […]
# [5] = test system: hESC; assay: Timing of 3i addition after LSB induction (survival, TUJ1); type: cell-based
# Source text: Cells were stained for identifying antibodies that bound to OCT4 (dark) and PAX6 (light) in addition to a nuclear 4′-6 Diamidino-2-phenylindole (DAPI) stain.
# The stem cells treated with the combination of LSB and 3i were fixed on day 11 and examined for survival and expression of the neuronal marker TUJ1.
# [6] = test system: melanocyte precursors from hESC; assay: Expansion and maturation of melanocytes; type: cell-based, human; details: component left out of formulation
# Source text: Melanocyte characteristics evaluated included induction of spindle morphology, pigmentation, and melanosome formation.
# Specifically, the following time line of culturing conditions was developed that produced melanocytes of the present inventions: Feed on Day 0 and 1 with LDN and SB (using the same concentration ranges as LDN and SB in methods comprising 3i); Feed on Day 2 with LDN, SB, CHIR (using the same concentration ranges as LDN, SB, and CHIR in methods comprising 3i as described herein); In one embodiment, Feed on Day 3 with SB, CHIR (using the same concentration ranges as SB and CHIR in methods comprising 3i as described herein), in another embodiment Feed on Day 3 with LDN, SB, CHIR (using the same concentration ranges as LDN, SB, and CHIR in methods comprising 3i as described herein); Feed on Day 4 and 5 CHIR (using the same concentration ranges as CHIR in methods comprising 3i as described herein); Feed on Day 6 to 11 CHIR, BMP4, and EDN3 (using the same concentration ranges as CHIR in methods comprising 3i as described herein, see concentration ranges below for BMP4 and EDN3). On day 11 cells were passaged and fed with MEL media (including CHIR) up to 8 weeks. […]
smiles,measurement,setting,value
"Cc1c[nH]c(-c2cnc(NCCNc3ccc(C#N)cn3)nc2-c2ccc(Cl)cc2Cl)n1 [CHIR99021, 6-(2-(4-(2,4-dichlorophenyl)-5-(4-methyl-1H-imidazol-2-yl)pyrimidin-2-ylamino)ethylamino)nicotinonitrile]",Nestin positive cells (progenitors),[1],majority
same,SOX10::GFP+ cells,[2],greater than 70%
same,IC50 values,[3],nanomolar
CC1=C2C[C@H]3[C@@H](CC=C4C[C@@H](O)CC[C@@]43C)[C@@H]2CC[C@]12O[C@@H]1C[C@H](C)CN[C@H]1[C@H]2C [Cyclopamine],effect on TUJ1/PAX6 staining,[4],no effect
"C[C@H](NC(=O)Cc1cc(F)cc(F)c1)C(=O)N[C@H](C(=O)OC(C)(C)C)c1ccccc1 [DAPT, N—[N-(3,5-Difluorophenacetyl)-L-alanyl]-S-phenylglycine t-butyl ester]",Nestin positive cells (progenitors),[1],majority
"c1ccc2c(-c3cnn4cc(-c5ccc(N6CCNCC6)cc5)cnc34)ccnc2c1 [LDN193189, 4-(6-(4-(piperazin-1-yl)phenyl)pyrazolo[1,5-a]pyrimidin-3-yl)quinoline]",effect of inclusion or exclusion from days 5 to 10 on the differentiation,[5],does not make a difference
CCCCC/C=C\C/C=C\CCCCCCCC(=O)O [Linoleic Acid],requirement in medium for growth of melanocytes,[6],required
"Cc1c[nH]c(/C=C2\C(=O)Nc3ccccc32)c1CCC(=O)O [SU5402, 2-[(1,2-Dihydro-2-oxo-3H-indol-3-ylidene)methyl]-4-methyl-1H-pyrrole-3-propanoic acid]",Nestin positive cells (progenitors),[1],majority
